The test system of the assay is thoracic aorta. The assay can be described thus: Vasorelaxant effect on isolated vessels (rat thoracic aorta rings without endothelium, precontracted with noradrenalin). On the set-up: species or system Wistar rats. In outline:
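Endothelium-denuded thoracic aorta rings from Wistar rats, held in Krebs-Ringer buffer (pH 7.4, 37 °C, 95% O2/5% CO2) under isometric tension and precontracted with 10^-7 M noradrenalin, received cumulative compound (10^-8 to 10^-4 M). Maximum relaxation given as percent; IC50 calculated when relaxation exceeded 50%.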

Structures can show the parent of a compound that is named as a salt.

For orientation: IC50 means the concentration needed to halve the response being measured. Low readings indicate greater potency in that assay, high ones weaker potency in that assay. In the case of `O=C(CNC(=O)[C@@H]1CSCN1)N[C@H]1CO[C@H]2[C@@H]1OC[C@@H]2O[N+](=O)[O-]` [Compound 46, 5-[[2-[[(4-L-Thiazolidinyl)carbonyl]amino]-1oxoethyl]amino]-5-deoxy-2-O-nitro-1,4:3,6-dianhydro-L-iditol monohydrochloride], the Emax (Rattus norvegicus, maximum inhibition of noradrenalin effect, 10^-8 to 10^-4 M substance, read-out: Maximum Relaxation) turned out to be 50%. The compound further had an IC50 (rat aorta, 10^-7 M noradrenalin contraction) of 100 µM.

The values are drawn from patent US5591758A, “Organic nitrates, processes for their preparation and their use in the treatment of cardiovascular diseases” (Laboratoires Hoechst, SA, priority 1991, dated 1997).
